Reference: US20110251229A1 (priority 2007, published 2011)
Entries after “also recorded” stand apart in the source; their conditions may differ.

What was measured:
[1] = tested on: rats with chronic constriction injury of the sciatic nerve; test: Chronic constriction injury (CCI)-induced allodynia, von Frey test; details: for reversal of established CCI-induced allodynia: delivery intrathecally or systemically; for reversal of neuropathic pain: rat, in vivo; for reversal of CCI-induced allodynia: 60 mg/kg s.c.
TLR4 mRNA = TLR4 mRNA expression in lumbar dorsal spinal cord after chronic intrathecal opioids; format: in vivo, rat; details: 15 μg intrathecal once daily for 7 days, relative to GAPDH
human TLR4 = molecular target: T1, human TLR4 (Homo sapiens, UniProt O00206); format: cell-based
T1 construct: host or cells: HEK 293

[2] = tested on: astrocyte (GFAP) and microglia (CD11b/c) activation markers; test: Glial activation markers (GFAP, CD11b/c) in L5 spinal cord of CCI rats, immunohistochemistry; format: in vivo, rat; details: 60 μg/hr intrathecal across 4 days, vs vehicle; for CD11b/c expression: bilaterally; for GFAP expression in ipsilateral or contralateral dorsal horns: densitometry
Procedure: Following the final behavioral testing rats were transcardially perfused first with isotonic saline and then with fresh 4% paraformaldehyde/0.1 M phosphate buffer (4% PFA/PB, pH 7.4). After dissection and immersion post-fixation in 4% PFA/PB for an additional 24 hr, the lumbar spinal cords then dehydrated in 30% sucrose with 0.1% azide at 4° C. until slicing.
For immunohistochemistry, sections were treated to suppress endogenous peroxidase and to prevent staining of endogenous biotin. The sections were incubated in either primary mouse monoclonal anti-rat glial fibrillary acidic protein (GFAP) (1:500; to visualize astrocyte astrocyte activation; ICN Biomedicals, Costa Mesa, Calif.) or primary mouse monoclonal anti-rat OX-42 (1:500; to visualize microglial activation; BioSource, Camarillo, Calif.) for 24 hr at 4° C. The slides were then incubated in secondary biotinylated goat anti-mouse IgG antibody (1:500; Jackson ImmunoResearch, West Grove, Pa.) overnight at 4° C. Finally sections were reacted using the avidin-biotin complex procedure (ABC, Vector Elite kit; 1:100 in PBS-Triton; 2 hr; Vector laboratories, Burlingame, Calif.) and 3′,3′-diaminobenzidine (DAB; Sigma-Aldrich). Glucose oxidase (Sigma-Aldrich; type V-s; 0.02%) and beta-D-glucose (0.1%) were used to generate hydrogen peroxide. […] ammonium sulfate was added to the DAB solution (0.025% w/v) to intensify the reaction product. One series of sections was processed as described above except that the primary antibody was omitted from the incubation buffer (omission controls). The slides were dried overnight, cleared, and cover slipped.
Slides were viewed with an Olympus Vannox II bright-field microscope. Images were collected with a Cohu CCD camera coupled to an Apple PowerMac 7200 equipped with NIH Image software (version 1.60). Brightness and contrast were kept constant with the images not altered. The intensity of the light source was calibrated each day.
Representative sections (10×) of ipsilateral dorsal horns of neuropathic (CCI) rats treated intrathecally with 60 μg/hr (+)-naloxone ([…]), 60 μg/hr (−)-naloxone (FIG. 18F), and vehicle (FIG. 18G) are shown. […] Scale bar=500 μm.

[3] = tested on: HAPI microglial cell line; test: HAPI microglial cell line activation by LPS, mRNA; format: cell-based
Procedure: HAPI microglial cell line was used to examine the effects of (+)-naloxone on microglial activation by LPS. Whereas 100 ng/mL LPS produced elevations in mRNA for CD11b (microglial activation marker), interleukin (IL)-1b, and IL-6, 1 μM (+)-naloxone abolished each of these LPS-induced effects. See FIG. 20 (GAPDH=glyceraldehyde-3-phosphate-dehydrogenase).

[4] = tested on: RAW264.7 mouse macrophage cell line expressing GFP-tagged Akt1 (TLR4 signaling); format: cell-based
morphine-treated rats = test: Chronic systemic morphine & (+)-naloxone experiment (Hargreaves, precipitated withdrawal, weight); format: in vivo, rat
[5] = tested on: morphine analgesia in rats; test: Potentiation of acute morphine analgesia, Hargreaves test; format: in vivo, rat
[6] = 12 mg/day s.c. minipump with 6 mg/day morphine, 7 days
[7] = about 20 μg co-administered with morphine intrathecally

T1 sequence (O00206 24-839): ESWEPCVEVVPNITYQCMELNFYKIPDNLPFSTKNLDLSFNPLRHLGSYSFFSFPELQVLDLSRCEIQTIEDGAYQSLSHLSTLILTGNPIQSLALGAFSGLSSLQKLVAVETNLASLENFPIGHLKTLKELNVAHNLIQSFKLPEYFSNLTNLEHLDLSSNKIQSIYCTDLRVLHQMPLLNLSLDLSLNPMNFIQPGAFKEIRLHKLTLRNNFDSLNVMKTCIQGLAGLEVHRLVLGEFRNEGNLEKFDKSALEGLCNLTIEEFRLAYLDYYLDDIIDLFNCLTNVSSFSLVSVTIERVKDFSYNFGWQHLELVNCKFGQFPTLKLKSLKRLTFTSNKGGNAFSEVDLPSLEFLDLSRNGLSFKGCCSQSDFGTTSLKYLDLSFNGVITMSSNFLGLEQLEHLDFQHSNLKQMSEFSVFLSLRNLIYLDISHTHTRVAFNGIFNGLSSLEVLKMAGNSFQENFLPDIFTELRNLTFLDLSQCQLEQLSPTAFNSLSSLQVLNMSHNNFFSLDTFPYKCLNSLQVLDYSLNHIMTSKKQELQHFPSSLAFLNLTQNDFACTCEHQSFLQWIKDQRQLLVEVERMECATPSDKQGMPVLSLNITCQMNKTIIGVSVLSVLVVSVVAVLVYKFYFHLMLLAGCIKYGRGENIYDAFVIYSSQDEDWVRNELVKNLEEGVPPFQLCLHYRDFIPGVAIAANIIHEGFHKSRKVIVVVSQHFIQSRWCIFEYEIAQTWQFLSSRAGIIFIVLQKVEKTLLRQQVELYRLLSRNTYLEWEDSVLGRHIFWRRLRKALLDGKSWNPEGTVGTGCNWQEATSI
T1 sequence (Q9Y6Y9 17-160 partner limits assumed): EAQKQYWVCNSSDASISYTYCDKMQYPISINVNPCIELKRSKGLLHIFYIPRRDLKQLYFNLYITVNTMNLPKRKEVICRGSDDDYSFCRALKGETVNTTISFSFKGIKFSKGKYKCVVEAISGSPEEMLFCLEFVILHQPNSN

Which “reversal of established CCI-induced allodynia” value [1] does the source give for (−)-naltrexone [reference compound] here?
Its value is “reversed established CCI-induced allodynia”.

For `CCC(=O)C(C[C@H](C)N(C)C)(c1ccccc1)c1ccccc1` [(+)-methadone], which “TLR4 mRNA in lumbar dorsal spinal cord” value (TLR4 mRNA) is on record?
The value was “significant elevation”.

`CCC(=O)C(CC(C)N(C)C)(c1ccccc1)c1ccccc1` (centres unmarked) [methadone, reference compound] was tested. Which TLR4 agonist activity (human TLR4) did it give?
The TLR4 agonist activity was “TLR4 agonists”.

(−)-naloxone [reference compound] was tested. Which “reversal of neuropathic pain” value [1] did it give?
The value was “reverses neuropathic pain”.

And the CD11b/c expression [2]?
The CD11b/c expression was “reliable suppression”.

What about the “GFAP expression in ipsilateral or contralateral dorsal horns” value [2] of the same molecule?
The value was “neither (+)-nor (−)-naloxone affected”.

Which “ipsilateral and contralateral allodynia” value ([1]; chronic intrathecal osmotic minipump, 20 or 60 ug/hr, 4-96 hr) does the source give for `C=CCN1CC[C@]23c4c5ccc(O)c4O[C@H]2C(=O)CC[C@@]3(O)[C@H]1C5` [naloxone, reference compound] here?
Its value is “attenuation”.

For “Lipopolysaccharide [LPS, reference compound]”, which “mRNA for CD11b” value ([3]; 100 ng/mL) is on record?
Its value is “elevations”.

What about the “mRNA for IL-6” value ([3]; 100 ng/mL) of the same molecule?
The value was “elevations”.

What about the “mRNA for interleukin (IL)-1b” value ([3]; 100 ng/mL) of the same molecule?
Its value is “elevations”.

What about the “clearance of GFP-Akt1 from the cytosol” value [4] of the same molecule?
The value was “robust, rapid clearance”.

What about the “EC50 (SEAP expression)” value (human TLR4) of the same molecule?
Its value is 0.21 ng/mL.

What about the “Emax (SEAP expression)” value (human TLR4) of the same molecule?
Its value is 40,956 arbitrary fluorescence units.

How did the “development of morphine-induced hyperalgesia” value (morphine-treated rats; [6]) turn out when `C=CCN1CC[C@]23c4c5ccc(O)c4O[C@H]2C(=O)CC[C@]3(O)[C@H]1C5` [(+)-naloxone, (+)-Naloxone] was run?
The value was “blocked the development of morphine-induced hyperalgesia”.

And the development of tolerance (morphine-treated rats; [6])?
The development of tolerance was “attenuated the development of tolerance”.

And the morphine analgesia (morphine-treated rats; [6])?
The morphine analgesia was “potentiated”.

And the weight gain (morphine-treated rats; [6])?
Its weight gain is “enabled normal weight gain”.

What about the withdrawal behaviors (morphine-treated rats; withdrawal precipitated by 100 mg/kg (−)-naltrexone on day 7) of the same molecule?
The withdrawal behaviors was “reduced withdrawal behaviors”.

What about the “reversal of CCI-induced allodynia” value ([1]; 30 min) of the same molecule?
Its value is “not significantly”.

What about the “reversal of CCI-induced allodynia” value ([1]; 90 min) of the same molecule?
Its value is “reversed CCI-induced allodynia; also recorded: reversed established allodynia; also recorded: acutely reverses”.

And the “ipsilateral and contralateral mechanical allodynia” value ([1]; 100 mg/kg subcutaneous, 14 days after CCI)?
The value was “reliable attenuation”.

What about the “reversal of neuropathic pain” value [1] of the same molecule?
The value was “reverses neuropathic pain”.

What about the “LPS-induced elevation in mRNA for CD11b” value ([3]; 1 μM with 100 ng/mL LPS) of the same molecule?
The value was “abolished”.

And the “LPS-induced elevation in mRNA for IL-6” value ([3]; 1 μM with 100 ng/mL LPS)?
Its value is “abolished”.

What about the “LPS-induced elevation in mRNA for interleukin (IL)-1b” value ([3]; 1 μM with 100 ng/mL LPS) of the same molecule?
The value was “abolished”.

What about the “morphine-induced Akt1 response” value ([4]; morphine 100 μM) of the same molecule?
The value was “blocked”.

What about the “LPS-induced Akt1 response” value ([4]; preincubation 1mM prior to LPS 7.5 μg/mL) of the same molecule?
Its value is “significantly attenuated”.

What about the “M3G induced TLR4 signaling” value (human TLR4) of the same molecule?
Its value is “attenuation”.

And the “antagonism of LPS activity at TLR4” value (human TLR4)?
Its value is “significant non-competitive antagonism; also recorded: non-competitively antagonizes”.

What about the “effect on basal unstimulated SEAP expression” value (human TLR4) of the same molecule?
Its value is “no substantial effect”.

And the “increase in the EC50 of LPS” value (human TLR4)?
Its value is 3 fold.

And the “morphine induced TLR4 signaling” value (human TLR4)?
Its value is “attenuation”.

What about the “reduction in the Emax of LPS” value (human TLR4) of the same molecule?
The value was 40%.

What about the CD11b/c expression [2] of the same molecule?
The CD11b/c expression was “reliable suppression”.

And the “GFAP expression in ipsilateral or contralateral dorsal horns” value [2]?
The value was “neither (+)-nor (−)-naloxone affected”.

What about the morphine analgesia ([5]; 20 μg intrathecal with subcutaneous morphine 4 mg/kg) of the same molecule?
Its morphine analgesia is “significantly potentiated; also recorded: potentiation”.

And the morphine analgesia [5, 7]?
The morphine analgesia was “significant potentiation of analgesia”.

For `COc1ccc2c3c1O[C@H]1C(=O)CC[C@@]4(O)[C@@H](C2)N(C)CC[C@]314` [oxycodone, reference compound], which TLR4 agonist activity (human TLR4) is on record?
Its TLR4 agonist activity is “TLR4 agonists”.

For `O=C1CC[C@]2(O)[C@@H]3Cc4ccc(O)c5c4[C@]2(CCN3CC2CC2)[C@@H]1O5` [(+)-naltrexone], which “reversal of established CCI-induced allodynia” value [1] is on record?
The value was “reversed established CCI-induced allodynia”.

And the morphine analgesia [5, 7]?
The morphine analgesia was “significant potentiation of analgesia”.

With `CN1CC[C@]23c4c5ccc(O)c4O[C@H]2[C@@H](O[C@@H]2O[C@H](C(=O)O)[C@@H](O)[C@H](O)[C@H]2O)C=C[C@H]3[C@H]1C5` [M6G, morphine-6-glucuronide, reference compound] as the molecule, how does the TLR4 agonist activity (human TLR4) read?
Its TLR4 agonist activity is “not found to have any significant TLR4 agonist activity”.

How did the “TLR4 mRNA in lumbar dorsal spinal cord” value (TLR4 mRNA) turn out when (−)-methadone was run?
Its value is “significant elevation”.

Which TLR4 agonist activity (human TLR4) does the source give for `CN1CC[C@]23c4c5ccc(O[C@@H]6O[C@H](C(=O)O)[C@@H](O)[C@H](O)[C@H]6O)c4O[C@H]2[C@@H](O)C=C[C@H]3[C@H]1C5` [M3G, morphine-3-glucuronide, reference compound] here?
The TLR4 agonist activity was “showed TLR4 agonist activity”.

For `CCOC(=O)C1(c2ccccc2)CCN(C)CC1` [pethadine/meperidine, meperidine, reference compound], which TLR4 agonist activity (human TLR4) is on record?
Its TLR4 agonist activity is “TLR4 agonists”.
